We go through one compound from US12011447B2, “Pharmaceutical composition for treating thyroid cancer comprising tyrosine kinase activity inhibitor as active ingredient” (Kyungpook National University Industry-Academic Cooperation …, priority 2017, dated 2024).

Entries after “also recorded” stand apart in the source; their conditions may differ.

The test system of one test is NIS promoter. The experiment in a line: NIS promoter activity by F-luc2 bioluminescence (BLI) in dual-reporter cells. The test is classed as cell-based, human. As to conditions: 8505C-PNIS-PCMV cells. The text has this:
A pNIS-FL2-TurboFP635-pCMV-Rluc recombinant vector expressing reporter genes driven by dual promoters was constructed by Cosmo Genetech, Ltd. (Republic of Korea) using a pNIS-FL2-TurboFP635 vector and a pcDNA3.1/Hygro(+) vector. Specifically, in order to screen a substance that increases the activity of NIS promoter, Firefly-luciferase2(F-luc2) and TurboFP635 were included downstream (clockwise) of the NIS promoter. In order count cells, CMV promoter and Renilla-luciferase (R-luc) were included upstream (counterclockwise) of the NIS promoter. The pNIS-FL2-TurboFP635 vector was provided from Dr. Abhijit De (ACTREC, India), and the pcDNA3.1/Hygro(+) vector was purchased from invitrogen (USA).
The 8505C cell line was transfected with the pNIS-FL2-TurboFP635-pCMV-Rluc recombinant vector using the Fu-GENE HD solution according to the protocols of the manufacturer (Promega). The ratio of the recombinant vector to the Fu-GENE HD solution was 1:4, and the transfected cells were selected using 600 μg/ml of geneticin (AG Scientific). The selected cell line that stably expresses the dual-reporter gene system is referred to herein as ‘8505C-PNIS-PCMV’ cell line.
To examine transcriptional regulation of the NIS (sodium iodide symporter) promoter, the 8505C-PNIS-PCMV cells were treated with a tyrosine kinase inhibitor (hereinafter referred to as TKI) library for 24 hours. Next, D-luciferin (150 μg/ml) was added to the cells, and the activity of NIS promoter was measured by IVIS Lumina III (Perkin-Elmer, Wellesley, Mass., USA). To normalize the NIS promoter activity to cell number, 10 μg/ml of h-coelenterazine was added to the cells, and the activity of R-luc was measured. The activity of F-luc2 was divided by the R-luc activity. The TKI library used in the experiment was obtained from the Korea Chemical Bank (www.chembank.org) in the Korea Research Institute of Chemical Technology (Republic of Korea). Among the TKI candidates, TKI-0266 was selected, purchased from Chemdiv (USA), dissolved in DMSO, and then stored at −80° C.

Test [1] deals with anaplastic thyroid cancer xenograft (8505C-PNIS-PCMV). Briefly: In vivo 99mTc-pertechnetate gamma camera imaging. Set-up: species or system Balb/c nude mice. As to conditions: for 99mTc-pertechnetate uptake (tumor ROI normalized to background), FIG. 16B: 50 mg/kg. The protocol:
(§1) Female Balb/c nude mice, 5.5-week old with an average weight of 18.9±0.37 g (mean±standard deviation [SD]), were purchased (Hamamatsu, Shizuoka, Japan). The mice were acclimated under specific pathogen-free conditions for one week before starting the experiment, and were maintained at a temperature of 20 to 25° C. and a relative humidity of 40 to 70%. To establish anaplastic thyroid cancer xenograft mouse models, 8505C-PNIS-PCMV s (5×10^6) were mixed with Matrigel (Corning) at a ratio of 1:1 and injected subcutaneously into the right flank region of each mouse.
When the injected 8505C-PNIS-PCMV cells grew to a size of about 50 mm^3, the mice were divided into two groups (n=5): a vehicle group; and a TKI-0266-administered group (50 mg/kg) injected with TKI-0266 by intraperitoneal injection every day for 5 days. To acquire gamma-camera images, 18.5 to 22.2 MBq ^99mTc-pertechnetate was administered to all the mice by intravenous injection. Whole body pinhole gamma camera imaging using a 2-mm pinhole collimator was acquired by infinia II gamma camera (GE Healthcare, USA). During the experiment, the mice were maintained under anesthesia with isoflurane (Forane, ChoongWae Co., Ltd., Korea). In order to estimate the count value, quantitative analysis was performed by quantifying the regions of interest (hereinafter referred to as ROI) in the mouse tumor region. Finally, in order to confirm the pertechnetate absorbed into the tumor, normalization was performed with a background activity ROI of the same size in the mouse head region.

For test [2] the test system is unchanged. The experiment in a line: Tumor growth inhibition in xenograft mice (tumor size, R-luc BLI). The test is classed as in vivo, Balb/c nude mice. The protocol:
as §1
In addition, in order to evaluate the effect of TKI-0266 administration on the treatment of thyroid cancer, mice for use in the experiment were divided into four groups (n=5): the vehicle group; the ^131I-administered group (injected intraperitoneally with 1 mCi Na-^131I on day 2 of the experiment; the TKI-0266-administered group (injected intraperitoneally with 50 mg/kg of TKI-0266 for 5 days); and the group co-administered with ^131I and TKI-0266 (injected intraperitoneally with 50 mg/kg of TKI-0266 for 5 days, and injected intravenously with 1 mCi Na-^131I on day 2; n=5). To measure the degree of tumor growth, h-coelenterazine (15 μg/ml) was administered to the mice by intravenous injection, and then the R-luc activity was monitored by BLI every 5 days.

The subject of the next test is NIS. The experiment in a line: Immunohistochemistry of NIS in tumor tissue. To be noted: xenograft tumor sections. The test is classed as in vivo, Balb/c nude mice. The text has this:
(§2) At the end of the experiment, the mice were sacrificed, and the tumors were isolated from the mouse's right flank and fixed overnight with 4% formalin. The isolated tumors were embedded in paraffin, sectioned to a 4-μm thickness, and mounted on slides. The tumor sections on the slides were de-paraffinized and stained with hematoxylin & eosin. For immunohistochemistry, NIS (Thermo Fisher Scientific; diluted at 1:200) and cleaved caspase-3 (Cell signaling; diluted at 1:200) antibodies were used.

The next test relates to cleaved caspase-3. The experiment in a line: Immunohistochemistry of cleaved caspase-3 in tumor tissue. The test is classed as in vivo, Balb/c nude mice. To be noted: co-administered with 131I and TKI-0266.
Source text: as §2

Turning to `Cc1cc2c(N(C)C3CCCCC3)ncnc2s1` [TKI-0266], in the test on NIS promoter, the “concentration showing the highest F-luc2 activity” value came out at 12.5 µM. The “BLI signal activity of F-luc2 (NIS promoter activity), increase” value with NIS promoter (24 hours, screening) is on record as 3.19 fold. Besides, the “BLI signal of F-luc2 as treatment concentration increased” value with NIS promoter (FIG. 7A) is on record as “increased”. Also, in the test on NIS promoter (FIG. 8), the “activity of NIS promoter (normalized by cell viability) as treatment concentration increased” value was “increased”. Also, in test [1] (50 mg/kg every day for 5 days), the “99mTc-pertechnetate accumulation in the cancer cells (radioisotope uptake)” value is listed as “significantly increased; also recorded: the best”. The figures for the “99mTc-pertechnetate uptake (tumor ROI normalized to background), FIG. 16B” value in test [1] (day 0) and in test [1] (day 6) were 0.852±0.210 and 1.21±0.24, respectively. The “tumor growth rate compared to vehicle group and 131I alone group” value in test [2] (TKI-0266 alone, 50 mg/kg for 5 days) was “slow tumor growth rate”. The “tumor growth inhibitory effect among the four experimental groups” value in test [2] (co-administered with 131I and TKI-0266) is listed as “best tumor growth inhibitory effect”. Moreover, the R-luc signal intensity entry in test [2] (co-administered with 131I and TKI-0266, day 6 after administration) is recorded as “decreased”; in test [2] (co-administered with 131I and TKI-0266, day 11 after administration), “restored”. Moreover, in test [2] (single agent administration), the “tumor size on days 6 and 11” value is on record as “increase”. The “expression of NIS-specific protein in tumor tissue (immunohistochemistry)” value in the test with NIS is “high”. Besides, the “expression of cleaved caspase-3 indicating cell death (immunohistochemistry)” value with cleaved caspase-3 is listed as “the highest”.
